ChEMBL document CHEMBL4613261, “Metabolic and Pharmaceutical Aspects of Fluorinated Compounds” (J Med Chem, 2020)
≈ marks a conversion by molar mass, not a printed value. Where “and” joins values, the source holds several entries; their conditions need not be identical. Identical values can stand only once.

What was measured:
[1] = Drug metabolism in Sprague-Dawley rat kidney assessed as fluoro-acetic acid metabolite level at 100 mg/kg, po measured after 2 to 8 hrs; format: ADME, organism-based; conditions: in vivo
[2] = Drug metabolism in Sprague-Dawley rat liver assessed as fluoro-acetic acid metabolite level at 100 mg/kg, po measured after 2 to 8 hrs; format: ADME, organism-based; conditions: in vivo
[3] = Drug metabolism in Sprague-Dawley rat heart assessed as fluoro-acetic acid metabolite level at 100 mg/kg, po measured after 2 to 8 hrs; format: ADME, organism-based; conditions: in vivo
Adenosine deaminase [4] = target: T1, Adenosine deaminase (Rattus norvegicus, UniProt Q920P6); assay: Prodrug conversion in rat blood assessed as rate of adenosine deaminase-mediated didanosine formation by HPLC analysis; format: ADME, tissue-based
T1 sequence (Q920P6 whole entry): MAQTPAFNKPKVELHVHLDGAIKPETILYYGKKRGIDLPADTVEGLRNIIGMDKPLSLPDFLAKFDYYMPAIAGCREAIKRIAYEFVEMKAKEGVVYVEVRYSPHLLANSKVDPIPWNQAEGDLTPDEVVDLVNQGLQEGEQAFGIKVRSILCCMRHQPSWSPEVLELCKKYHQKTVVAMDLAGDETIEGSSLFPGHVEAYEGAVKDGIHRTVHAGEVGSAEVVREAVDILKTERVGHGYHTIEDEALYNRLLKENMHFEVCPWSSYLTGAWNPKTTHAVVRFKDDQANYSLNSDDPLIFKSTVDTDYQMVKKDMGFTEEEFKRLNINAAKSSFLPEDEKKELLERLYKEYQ

[5] = Prodrug conversion in rat blood assessed as total fraction of didanosine formation by HPLC analysis; format: ADME, tissue-based
Adenosine deaminase [6] = target: T1, Adenosine deaminase; assay: Prodrug conversion in rat brain assessed as rate of adenosine deaminase-mediated didanosine formation by HPLC analysis; format: ADME, tissue-based; conditions: in vivo
[7] = Prodrug conversion in rat brain assessed as total fraction of didanosine formation by HPLC analysis; format: ADME, tissue-based; conditions: in vivo
[8] = Prodrug conversion in rat brain assessed as rate of didanosine formation by HPLC analysis; format: ADME, tissue-based; conditions: in vivo
[9] = Prodrug conversion in rat blood assessed as rate of didanosine formation by HPLC analysis; format: ADME, tissue-based
[10] = Apparent half life in rat brain; format: ADME, tissue-based
[11] = Apparent half life in rat blood; format: ADME, tissue-based
[12] = Clearance in human liver microsomes assessed per mg protein; format: ADME, Microsome
[13] = Solubility of the compound in aqueous buffer at pH 6.5; format: physicochemical
[14] = target: Alanine racemase, biosynthetic (Escherichia coli K-12, UniProt P0A6B4); assay: Substrate activity at Escherichia coli B alanine racemase assessed as partition ratio by measuring ratio of turnover rate to inactivation rate
Chain of Alanine racemase, biosynthetic (P0A6B4 whole entry): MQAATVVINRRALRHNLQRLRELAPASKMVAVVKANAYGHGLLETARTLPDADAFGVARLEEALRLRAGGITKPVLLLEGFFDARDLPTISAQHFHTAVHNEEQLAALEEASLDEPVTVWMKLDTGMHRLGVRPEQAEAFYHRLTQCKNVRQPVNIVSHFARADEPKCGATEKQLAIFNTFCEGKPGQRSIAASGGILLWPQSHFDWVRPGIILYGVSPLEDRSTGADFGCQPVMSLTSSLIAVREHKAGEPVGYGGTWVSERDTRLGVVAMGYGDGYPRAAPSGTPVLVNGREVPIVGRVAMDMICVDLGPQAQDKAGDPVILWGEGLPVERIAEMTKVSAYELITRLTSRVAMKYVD

[15] = target: T2, MGST1 (microsomal glutathione S-transferase 1) (Rattus norvegicus, UniProt P08011); assay: Substrate activity at MGST1 in rat liver microsomes assessed as substrate depletion at 50 uM incubated for 30 mins in presence of GSH by liquid chromatography/mass spectrometry; format: ADME; conditions: read-out: Activity
T2 sequence (P08011 whole entry): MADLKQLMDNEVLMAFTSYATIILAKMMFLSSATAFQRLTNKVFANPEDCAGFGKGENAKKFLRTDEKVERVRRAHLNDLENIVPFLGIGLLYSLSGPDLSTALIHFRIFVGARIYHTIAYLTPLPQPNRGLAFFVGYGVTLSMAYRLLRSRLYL

Lysine decarboxylase = target: T3, Lysine decarboxylase (Hafnia alvei, UniProt P05033); assay: Time dependent inhibition of Hafnia alvei lysine decarboxylase using L-lysine by Kitz-Wilson analysis
T3 sequence (P05033 whole entry): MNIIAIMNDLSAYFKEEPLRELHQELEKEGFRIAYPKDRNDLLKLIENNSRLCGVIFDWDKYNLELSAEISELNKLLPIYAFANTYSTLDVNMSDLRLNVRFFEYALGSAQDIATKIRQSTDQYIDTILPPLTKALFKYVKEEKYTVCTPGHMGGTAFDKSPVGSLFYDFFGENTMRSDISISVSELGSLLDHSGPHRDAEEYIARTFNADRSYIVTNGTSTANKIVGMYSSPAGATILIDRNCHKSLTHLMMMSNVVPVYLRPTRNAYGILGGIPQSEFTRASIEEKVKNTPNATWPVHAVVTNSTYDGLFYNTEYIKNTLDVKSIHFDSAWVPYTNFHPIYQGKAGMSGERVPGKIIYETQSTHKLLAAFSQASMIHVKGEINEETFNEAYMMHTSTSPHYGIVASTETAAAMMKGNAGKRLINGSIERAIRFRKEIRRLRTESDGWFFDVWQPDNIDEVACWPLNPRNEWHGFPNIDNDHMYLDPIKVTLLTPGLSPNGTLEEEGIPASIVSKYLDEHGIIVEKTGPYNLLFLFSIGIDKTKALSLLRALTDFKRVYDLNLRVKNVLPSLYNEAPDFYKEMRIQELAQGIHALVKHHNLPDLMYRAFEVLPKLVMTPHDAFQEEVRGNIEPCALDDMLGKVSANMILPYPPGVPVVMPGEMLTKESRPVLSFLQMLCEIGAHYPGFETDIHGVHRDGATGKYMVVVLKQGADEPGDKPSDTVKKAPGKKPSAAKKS

[16] = Protein binding in human plasma
[17] = Intrinsic clearance in human liver microsome; format: ADME; conditions: liver microsomes, read-out: CLH
[18] = Aqueous solubility of the compound in pH 6.8 buffer
[19] = Lipophilicity, log P of the compound; conditions: octanol/water
[20] = target: T4, Microsomal glutathione S-transferase 1 (Rattus norvegicus, UniProt P08011); assay: Substrate activity at MGST1 in rat liver microsomes assessed as reactivity rate at 50 uM incubated for 1 to 40 mins in presence of GSH by liquid chromatography/mass spectrometry
T4 sequence (P08011 whole entry): T2 sequence (P08011 whole entry)

[21] = Acute toxicity in rat measured after 4 hrs; conditions: in vivo
[22] = Lipophilicity, log P of the compound by C18 reverse phase HPLC; format: physicochemical
[23] = Substrate activity at GSTZ (unknown origin) assessed as rate of drug conversion to S-(carboxymethyl)-glutathione per mg of protein; format: ADME; conditions: human
[24] = Substrate activity at cytochrome p450 in phenobarbital-induced rat liver microsomes assessed as cytochrome p450-mediated-deethoxylation per mg of protein; format: ADME
[25] = Toxicity in dog; parameters: species or system Canis lupus familiaris; conditions: in vivo
[26] = Substrate activity at recombinant human GSTZ1C expressed in Escherichia coli M15 assessed as rate of catalysis per mg of protein; format: ADME
[27] = target: T5, Maleylacetoacetate isomerase (Rattus norvegicus, UniProt P57113); assay: Substrate activity at GSTZ1 in rat liver cytosol assessed as defluorination activity; format: ADME, subcellular
T5 sequence (P57113 whole entry): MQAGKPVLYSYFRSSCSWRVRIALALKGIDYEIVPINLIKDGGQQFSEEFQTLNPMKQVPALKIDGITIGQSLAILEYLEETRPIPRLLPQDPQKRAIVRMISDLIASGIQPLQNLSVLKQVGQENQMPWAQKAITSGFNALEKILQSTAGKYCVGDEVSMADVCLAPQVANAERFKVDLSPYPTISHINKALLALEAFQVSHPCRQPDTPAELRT

[28] = Drug elimination in human; format: ADME; conditions: read-out: Drug excretion
[29] = Toxicity in Wistar rat measured for 6 days; conditions: in vivo, 144 h

SMILES: C[C@H](NC(=O)[C@H](Cc1ccccc1)NC(=O)OCc1ccccc1)C(=O)CF
- Drug metabolism [1]: 0.2 to 0.9 µg/g
- Drug metabolism [2]: 0.2 to 0.9 µg/g
- Drug metabolism [3]: 0.2 to 0.9 µg/g

SMILES: OC[C@@H]1CC[C@H](n2cnc3c(F)ncnc32)O1
- K (Adenosine deaminase [4]): 0.15 min⁻¹
- Fm [5]: 0.54
- K (Adenosine deaminase [6]): 1.51 min⁻¹
- Fm [7]: 1
- K [8]: 0 min⁻¹
- K [9]: 0.13 min⁻¹
- half-life [10]: 0.00767 h
- half-life [11]: 0.0583 h

SMILES: OC[C@@H]1CC[C@H](n2cnc3c(Cl)ncnc32)O1
- K (Adenosine deaminase [4]): 3 ×10⁻³ /min
- Fm [5]: 0.28
- K (Adenosine deaminase [6]): 0.032 min⁻¹
- Fm [7]: 1
- K [8]: 0 min⁻¹
- K [9]: 7.4 ×10⁻³ /min
- half-life [10]: 0.317 h
- half-life [11]: 4.5 h

SMILES: FCC(F)Cc1c[nH]c2ccccc12 (stereo unspecified)
- CLH [12]: 212 min⁻¹ µL⁻¹
- solubility [13]: > 1720 µM

SMILES: N[C@@H](CF)C(=O)O
- Ratio [14]: 790

SMILES: Clc1cccnc1Cl
- metabolised at 0.5 h, 50 µM [15]: 26%

SMILES: N[C@H](C(=O)O)C(F)F
- Ratio [14]: 5000

SMILES: Oc1cccnc1Cl
- metabolised at 0.5 h, 50 µM [15]: < 5%

SMILES: OC[C@@H]1CC[C@H](n2cnc3c(Br)ncnc32)O1
- half-life [10]: 0.333 h
- half-life [11]: 4.67 h

SMILES: Nc1cccnc1Cl
- metabolised at 0.5 h, 50 µM [15]: < 5%

SMILES: N[C@@H](C(=O)O)C(F)F
- Ratio [14]: 2600

SMILES: C=C(F)[C@](N)(CCCCN)C(=O)O
- Ki (Lysine decarboxylase): 630 µM

SMILES: O=[N+]([O-])c1cn2c(n1)OC[C@@H](OCc1ccc(SC(F)(F)F)cc1)C2
- fraction unbound [16]: 0.4
- microsomal CLint [17]: < 25 µL/min/mg
- solubility ([18]; pH 6.8 buffer): 5 µM (≈ 1.88 µg/mL)
- logP [19]: 2.7

SMILES: O=[N+]([O-])c1cccnc1Cl
- metabolised at 0.5 h, 50 µM [15]: 100%
- Activity [20]: 236 nmol/min/mg

SMILES: OC[C@@H]1CC[C@H](n2cnc3c(I)ncnc32)O1
- half-life [10]: 2.97 h
- half-life [11]: 28.2 h

SMILES: FC(F)=C(F)C(F)(F)F
- Activity [21]: 3000 ppm

SMILES: COc1cccnc1Cl
- metabolised at 0.5 h, 50 µM [15]: 17%

SMILES: C=C(F)[C@@](N)(CCCCN)C(=O)O
- Ki (Lysine decarboxylase): 470 µM

SMILES: FC(F)(F)Oc1ccccc1
- logP [22]: 3.35

SMILES: FC(F)(F)c1cccnc1Cl
- metabolised at 0.5 h, 50 µM [15]: 31%

SMILES: CC(F)(F)Oc1ccccc1
- logP [22]: 2.87

SMILES: Cc1cccnc1Cl
- metabolised at 0.5 h, 50 µM [15]: 14%

SMILES: Nc1nc2ccc(SC(F)(F)F)cc2s1
- fraction unbound [16]: 0.24
- microsomal CLint [17]: 40.9 µL/min/mg
- solubility ([18]; pH 6.8 buffer): 124 µM (≈ 31 µg/mL)
- logP [19]: 3.6

SMILES: CC(Cl)C(=O)O (racemic)
- K [23]: 1655 nmol/min

SMILES: CC(Br)C(=O)O (racemic)
- K [23]: 2142 nmol/min

SMILES: CC(I)C(=O)O (racemic)
- K [23]: 2532 nmol/min

SMILES: NC(C(=O)O)C(F)(F)F (racemic)
- Ratio [14]: 10

SMILES: Clc1ccccn1 [2-CHLOROPYRIDINE]
- Activity [20]: < 2 nmol/min/mg

SMILES: CCOc1ccc2ccc(=O)oc2c1 [ETHOXYCOUMARIN]
- Activity [24]: 1.93 nmol/min

SMILES: N[C@H](CF)C(=O)O [FLUDALANINE]
- Ratio [14]: 810

SMILES: O=C(O)CF [FLUOROACETATE]
- LD [25]: 0.05 mg/kg
- K [26]: 210 nmol/min
- K [23]: 172 nmol/min
- Activity [27]: 3%

SMILES: FC(F)(F)C(Cl)Br (stereo unspecified) [HALOTHANE]
- dose excreted [28]: 80%

SMILES: CCOc1ccc(NC(C)=O)cc1 [PHENACETIN]
- Activity [24]: 3.48 nmol/min

SMILES: CCOc1ccccc1 [PHENETOLE]
- logP [22]: 2.96

SMILES: O=[N+]([O-])c1cn2c(n1)OC[C@@H](OCc1ccc(OC(F)(F)F)cc1)C2 [PRETOMANID]
- PPB [16]: 38%
- microsomal CLint [17]: < 25 µL/min/mg
- solubility ([18]; buffer): 8 µM (≈ 2.87 µg/mL)
- logP [19]: 2.2

SMILES: Nc1nc2ccc(OC(F)(F)F)cc2s1 [RILUZOLE]
- PPB [16]: 85%
- microsomal CLint [17]: 38.9 µL/min/mg

SMILES: FC(F)=C(F)F [TETRAFLUOROETHYLENE]
- Activity [21]: 40000 ppm

SMILES: OCC(F)(F)F [TRIFLUOROETHANOL]
- LD50 [29]: 440 mg/kg and 210 mg/kg
